This note sets out measurements from patent publication US8119624B2, “Fused phenyl amido heterocyclic compounds” (Pfizer Inc., priority 2006, dated 2012).

This assay deals with T1, Full-length glucokinase (beta cell isoform) (Homo sapiens, UniProt P35557).
T1 construct: Full-length glucokinase (beta cell isoform) was His-tagged at N-terminus; His tag (N); made in house
T1 sequence (P35557 1-465): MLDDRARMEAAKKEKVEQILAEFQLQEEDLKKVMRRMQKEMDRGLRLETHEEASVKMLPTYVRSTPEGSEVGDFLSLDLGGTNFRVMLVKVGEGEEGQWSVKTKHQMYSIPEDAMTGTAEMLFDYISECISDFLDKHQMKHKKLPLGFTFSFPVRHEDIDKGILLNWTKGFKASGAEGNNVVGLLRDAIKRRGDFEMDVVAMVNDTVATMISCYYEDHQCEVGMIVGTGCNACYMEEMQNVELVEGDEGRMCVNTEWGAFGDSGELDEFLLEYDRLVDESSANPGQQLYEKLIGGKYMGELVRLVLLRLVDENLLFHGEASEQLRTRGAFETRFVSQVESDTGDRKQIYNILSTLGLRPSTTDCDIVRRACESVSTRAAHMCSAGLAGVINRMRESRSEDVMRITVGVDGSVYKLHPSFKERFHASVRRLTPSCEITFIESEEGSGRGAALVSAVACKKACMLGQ
Description: Glucokinase biochemical assay (PK/LDH-coupled, NADH depletion at 340 nm): % activation, EC50, % max activation. The conditions noted are these: 5 mM glucose; for activation at 10 µM: 10 uM compound, % Activation=(Va/Vo−1)×100, read-out: % Activation at 10 uM; for EC50: GK activation, read-out: EC50; for Emax: fitted maximum activation, read-out: % Max Activation. The essentials:
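N-terminally His-tagged full-length human beta-cell glucokinase, room temperature, 5 mM glucose, 1 mM ATP, PK/LDH-coupled with 0.7 mM NADH, 1% DMSO final. Initial velocity from the 200–900 s slope of A340 decline. % activation = (Va/Vo−1)×100, measured across compound concentrations.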

As a reminder, the EC50 is the concentration at which the effect is half-maximal.

Turning to `CN(C)C(=O)c1ccc(Oc2cc(C(=O)Nc3ccncn3)cc3c2CC(C)(C)O3)cc1` [Example 156, 4-(4-Dimethylcarbamoyl-phenoxy)-2,2-dimethyl-2,3-dihydro-benzofuran-6-carboxylic acid pyrimidin-4-ylamide], the activation at 10 µM amounted to 52%, the EC50 is 460 nM and the Emax is 49%.
For the compound `CN(C)C(=O)c1ccc(Oc2cc(C(=O)Nc3ccccn3)cc3c2CC(C)(C)O3)cc1` [Example 157, 4-(4-Dimethylcarbamoyl-phenoxy)-2,2-dimethyl-2,3-dihydro-benzofuran-6-carboxylic acid pyridin-2-ylamide], the activation at 10 µM was 69.2%, the EC50 was found to be 190 nM and the Emax came to 71%.
As for `CN(C)C(=O)c1ccc(Oc2cc(C(=O)Nc3ccon3)cc3c2CC(C)(C)O3)cc1` [Example 158, 4-(4-Dimethylcarbamoyl-phenoxy)-2,2-dimethyl-2,3-dihydro-benzofuran-6-carboxylic acid isoxazol-3-ylamide], the activation at 10 µM is 115%, the EC50 stood at 470 nM and the Emax amounted to 106%.
Consider `Cn1ncc(NC(=O)c2cc(Oc3ccc(C(=O)N4CCC4)c(F)c3)c3c(c2)OC(C)(C)C3)n1` [Example 159, 4-[4-(Azetidine-1-carbonyl)-3-fluoro-phenoxy]-2,2-dimethyl-2,3-dihydro-benzofuran-6-carboxylic acid (2-methyl-2H-[1,2,3]triazol-4-yl)-amide], for which the activation at 10 µM amounted to 243%, the EC50 was determined as 150 nM and the Emax turned out to be 260%.
With `Cn1ncc(NC(=O)c2cc(Oc3ccc(C(=O)N4CCC4)cc3)c3c(c2)OC(C)(C)C3)n1` [Example 160, 4-[4-(Azetidine-1-carbonyl)-phenoxy]-2,2-dimethyl-2,3-dihydro-benzofuran-6-carboxylic acid (2-methyl-2H-[1,2,3]triazol-4-yl)-amide], the activation at 10 µM was 298%, the EC50 is 130 nM and the Emax turned out to be 250%.
As to `CN(C)C(=O)c1ccc(Oc2cc(C(=O)Nc3ccn(C)n3)cc3c2CC(C)(C)O3)cn1` [Example 161, 5-[2,2-Dimethyl-6-(1-methyl-1H-pyrazol-3-ylcarbamoyl)-2,3-dihydro-benzofuran-4-yloxy]-pyridine-2-carboxylic acid dimethylamide], the activation at 10 µM came out at 191%, the EC50 was 175 nM and the Emax came to 143%.
For `CN(C)C(=O)c1ccc(Oc2cc(C(=O)Nc3ccn(C)n3)cc3c2CC(C)(C)O3)nc1` [Example 162, 6-[2,2-Dimethyl-6-(1-methyl-1H-pyrazol-3-ylcarbamoyl)-2,3-dihydro-benzofuran-4-yloxy]-N,N-dimethyl-nicotinamide], in that order: 105%, 1600 nM and 135%.
For `Cn1ccc(NC(=O)c2cc(Oc3ccc(C(=O)Nc4ccn(C)n4)nc3)c3c(c2)OC(C)(C)C3)n1` [Example 163, 5-[2,2-Dimethyl-6-(1-methyl-1H-pyrazol-3-ylcarbamoyl)-2,3-dihydro-benzofuran-4-yloxy]-pyridine-2-carboxylic acid (1-methyl-1H-pyrazol-3-yl)-amide], in that order: 118%, 440 nM and 137%.
For `CN(C)C(=O)c1ncc(Oc2cc(C(=O)Nc3ccn(C)n3)cc3c2CC(C)(C)O3)cn1` [Example 164, 5-[2,2-Dimethyl-6-(1-methyl-1H-pyrazol-3-ylcarbamoyl)-2,3-dihydro-benzofuran-4-yloxy]-pyrimidine-2-carboxylic acid dimethylamide], in that order: 112%, 250 nM and 102%.
Consider `Cc1ccc(NC(=O)c2cc(Oc3ccc(C(=O)N(C)C)nc3)c3c(c2)OC(C)(C)C3)nc1` [Example 165, 5-[2,2-Dimethyl-6-(5-methyl-pyridin-2-ylcarbamoyl)-2,3-dihydro-benzofuran-4-yloxy]-pyridine-2-carboxylic acid dimethylamide], for which the activation at 10 µM came out at 76.8%, the EC50 worked out at 38 nM and the Emax was 57%.
On to `CNC(=O)c1ccc(Oc2cc(C(=O)Nc3ccn(C)n3)cc3c2CC(C)(C)O3)cn1` [Example 166, 5-[2,2-Dimethyl-6-(1-methyl-1H-pyrazol-3-ylcarbamoyl)-2,3-dihydro-benzofuran-4-yloxy]-pyridine-2-carboxylic acid methylamide], for which the activation at 10 µM was 203%, the EC50 came to 410 nM and the Emax amounted to 212%.
For `Cn1ccc(NC(=O)c2cc(Oc3ccc(C(=O)N4CCC4)nc3)c3c(c2)OC(C)(C)C3)n1` [Example 167, 4-[6-(Azetidine-1-carbonyl)-pyridin-3-yloxy]-2,2-dimethyl-2,3-dihydro-benzofuran-6-carboxylic acid (1-methyl-1H-pyrazol-3-yl)-amide], in that order: 148%, 55.3 nM and 146%.
As to `CCNC(=O)c1ccc(Oc2cc(C(=O)Nc3ccn(C)n3)cc3c2CC(C)(C)O3)cn1` [Example 168, 5-[2,2-Dimethyl-6-(1-methyl-1H-pyrazol-3-ylcarbamoyl)-2,3-dihydro-benzofuran-4-yloxy]-pyridine-2-carboxylic acid ethylamide], the activation at 10 µM is 172%, the EC50 is 199 nM and the Emax is 184%.
For `Cn1ncc(NC(=O)c2cc(Oc3ccc(C(=O)N4CCC4)nc3)c3c(c2)OC(C)(C)C3)n1` [Example 169, 4-[6-(Azetidine-1-carbonyl)-pyridin-3-yloxy]-2,2-dimethyl-2,3-dihydro-benzofuran-6-carboxylic acid (2-methyl-2H-[1,2,3]triazol-4-yl)-amide] the same measures were 125%, 56 nM and 141%.
For `CNC(=O)c1ccc(Oc2cc(C(=O)Nc3cnn(C)n3)cc3c2CC(C)(C)O3)cn1` [Example 170, 5-[2,2-Dimethyl-6-(2-methyl-2H-[1,2,3]triazol-4-ylcarbamoyl)-2,3-dihydro-benzofuran-4-yloxy]-pyridine-2-carboxylic acid methylamide], in that order: 264%, 300 nM and 255%.
For `CNC(=O)c1ncc(Oc2cc(C(=O)Nc3ccn(C)n3)cc3c2CC(C)(C)O3)cn1` [Example 171, 5-[2,2-Dimethyl-6-(1-methyl-1H-pyrazol-3-ylcarbamoyl)-2,3-dihydro-benzofuran-4-yloxy]-pyrimidine-2-carboxylic acid methylamide] the same measures were 171%, 3600 nM and 213%.
For the compound `Cn1ccc(NC(=O)c2cc(Oc3cnc(C(=O)N4CCC4)nc3)c3c(c2)OC(C)(C)C3)n1` [Example 172, 4-[2-(Azetidine-1-carbonyl)-pyrimidin-5-yloxy]-2,2-dimethyl-2,3-dihydro-benzofuran-6-carboxylic acid (1-methyl-1H-pyrazol-3-yl)-amide], the activation at 10 µM was found to be 186%, the EC50 amounted to 480 nM and the Emax was determined as 169%.
For `Cn1ccc(NC(=O)c2cc(Oc3cnc(C(=O)N4CCC4)c(F)c3)c3c(c2)OC(C)(C)C3)n1` [Example 173, 4-[6-(Azetidine-1-carbonyl)-5-fluoro-pyridin-3-yloxy]-2,2-dimethyl-2,3-dihydro-benzofuran-6-carboxylic acid (1-methyl-1H-pyrazol-3-yl)-amide], in that order: 159%, 68 nM and 148%.
`CCNC(=O)c1ccc(Oc2cc(C(=O)Nc3cnn(C)n3)cc3c2CC(C)(C)O3)cn1` [Example 174, 5-[2,2-Dimethyl-6-(2-methyl-2H-[1,2,3]triazol-4-ylcarbamoyl)-2,3-dihydro-benzofuran-4-yloxy]-pyridine-2-carboxylic acid ethylamide]: the activation at 10 µM was 238%, the EC50 stood at 840 nM and the Emax worked out at 258%.
Take `CCNC(=O)c1ncc(Oc2cc(C(=O)Nc3ccn(C)n3)cc3c2CC(C)(C)O3)cc1NCC` [Example 175, 5-[2,2-Dimethyl-6-(1-methyl-1H-pyrazol-3-ylcarbamoyl)-2,3-dihydro-benzofuran-4-yloxy]-3-ethylamino-pyridine-2-carboxylic acid ethylamide]: the activation at 10 µM was 233%, the EC50 was determined as 770 nM and the Emax turned out to be 251%.
Consider `CNC(=O)c1ncc(Oc2cc(C(=O)Nc3ccn(C)n3)cc3c2CC(C)(C)O3)cc1F` [Example 176, 5-[2,2-Dimethyl-6-(1-methyl-1H-pyrazol-3-ylcarbamoyl)-2,3-dihydro-benzofuran-4-yloxy]-3-fluoro-pyridine-2-carboxylic acid methylamide], for which the activation at 10 µM amounted to 194%, the EC50 came to 450 nM and the Emax was found to be 203%.
